Measured values as given in the supplement of paper PMC9663587.

What was measured:
[1] = compound: CNc1nc(-c2ccc3c(N)n[nH]c3c2)cc(N2C[C@@H](C(=O)NC3CCCCC3)CC[C@H]2C)n1
[2] = compound: CCN1CCN(Cc2ccc(Nc3ncc(F)c(-c4cc(F)c5nc(C)n(C(C)C)c5c4)n3)nc2)CC1
[3] = compound: CC(=O)c1c(C)c2cnc(Nc3ccc(N4CCNCC4)cn3)nc2n(C2CCCC2)c1=O
[4] = compound: CCNC(=O)c1noc(-c2cc(C(C)C)c(O)cc2O)c1-c1ccc(CN2CCOCC2)cc1 [Luminespib/NVP-AUY922]
[5] = compound: CC(=O)Nc1cccc(-n2c(=O)n(C3CC3)c(=O)c3c(Nc4ccc(I)cc4F)n(C)c(=O)c(C)c32)c1
[6] = compound: O=C(CCCCCCC(=O)Nc1ccccc1)NO [Vorinostat]
[7] = compound: CN(C)C/C=C/C(=O)Nc1ccc(C(=O)N2CCC[C@@H](Nc3ncc(Cl)c(-c4c[nH]c5ccccc45)n3)C2)cc1 [THZ531]
[8] = compound: C1=CC(=CC(=C1)N2C(=O)C=CC3=CN=C4C=CC(=CC4=C32)C5=CN=C(C=C5)N)C(F)(F)F [Torin2]
[9] = compound: Cc1nc(-c2cn3c(n2)-c2ccc(-c4cnn(C(C)(C)C(N)=O)c4)cc2OCC3)n(C(C)C)n1 [Taselisib/GDC0032]
[10] = compound: CC[C@@H]1C(=O)N(C)c2cnc(Nc3ccc(C(=O)N[C@H]4CC[C@H](N5CCN(CC6CC6)CC5)CC4)cc3OC)nc2N1C(C)C [Volasertib/BI6727]
[11] = compound: NC(=O)Nc1cc(-c2cccc(F)c2)sc1C(=O)N[C@H]1CCCNC1 [AZD7762]
[12] = compound: CN1CCN(CCOc2cc(OC3CCOCC3)c3c(Nc4c(Cl)ccc5c4OCO5)ncnc3c2)CC1 [Saracatinib/AZD0530]
[13] = compound: C[C@@H]1COCCN1c1cc(C2([S@](C)(=N)=O)CC2)nc(-c2cc[nH]c3nccc2-3)n1 [AZD6738]
[14] = compound: CC(C)n1nc(-c2ccc3oc(N)nc3c2)c2c(N)ncnc21 [INK128/MLN0128]
[15] = compound: CN(C)C/C=C/C(=O)Nc1ccc(O[C@@H]2CCC[C@@H](Nc3ncc(Cl)c(-c4c[nH]c5ccccc45)n3)C2)cc1 [BSJ-01-175]
[16] = compound: Nc1cc(C(F)(F)F)c(-c2cc(N3CCOCC3)nc(N3CCOCC3)n2)cn1 [Buparlisib/NVP-BKM120]
[17] = compound: C=CCn1c(=O)c2cnc(Nc3ccc(N4CCN(C)CC4)cc3)nc2n1-c1cccc(C(C)(C)O)n1 [AZD1775]
[18] = compound: Cc1nc(NC(=O)N2CCC[C@H]2C(N)=O)sc1-c1ccnc(C(C)(C)C(F)(F)F)c1 [Alpelisib/BYL719]
[19] = compound: O=C(c1cc(Cc2n[nH]c(=O)c3ccccc23)ccc1F)N1CCN(C(=O)C2CC2)CC1 [Olaparib/AZD2281]
[20] = compound: CC1=CN2C(=O)C=C(N=C2C(=C1)C(C)NC3=CC=CC=C3)N4CCOCC4 [TGX221]
[21] = compound: O=C1NC(=O)[C@@H](c2cn3c4c(cccc24)CCC3)[C@@H]1c1c[nH]c2ccccc12 [Tivantinib/ARQ197]
[22] = compound: CC1(CCN(CC1)C2=CN=C(C(=N2)N)C3=C(C(=CC=C3)Cl)Cl)N [SHP099]
[23] = compound: COc1ccc2c(c1)[C@]1(C[C@H]1c1ccc3c(/C=C/c4ccc(CN5C[C@@H](C)O[C@@H](C)C5)cc4)n[nH]c3c1)C(=O)N2
[24] = compound: CNC(=O)c1cccc(-c2ccc3c(N4CCOC[C@@H]4C)nc(N4CCOC[C@@H]4C)nc3n2)c1 [AZD2014]
[25] = compound: CC(C)NC[C@@H](C(=O)N1CCN(c2ncnc3c2[C@H](C)C[C@H]3O)CC1)c1ccc(Cl)cc1 [Ipatasertib/GDC0068]
[26] = compound: CN1CCN(C(=O)c2ccc3cc(CCNc4ncnc5ccc(C#N)cc45)ccc3c2)CC1 [senexin b]
[27] = compound: Cc1nc(Nc2ncc(C(=O)Nc3c(C)cccc3Cl)s2)cc(N2CCN(CCO)CC2)n1 [Dasatinib]
[28] = compound: CN(C)C/C=C/C(=O)Nc1ccc(C(=O)Nc2cccc(Nc3ncc(Cl)c(-c4c[nH]c5ccccc45)n3)c2)cc1 [THZ1]
[29] = compound: COc1cc2nccc(Oc3ccc(NC(=O)C4(C(=O)Nc5ccc(F)cc5)CC4)cc3)c2cc1OC [Cabozantinib]
[30] = compound: COc1cc2c(Oc3ccc4[nH]c(C)cc4c3F)ncnc2cc1OCCCN1CCCC1 [Cediranib/AZD2171]
[31] = compound: CN(C)CC[C@H](CSc1ccccc1)Nc1ccc(S(=O)(=O)NC(=O)c2ccc(N3CCN(Cc4ccccc4-c4ccc(Cl)cc4)CC3)cc2)cc1[N+](=O)[O-] [ABT-737]
[32] = compound: CCCCOc1c(C(=O)c2c(F)cc(C)cc2F)c[nH]c2nncc1-2
[33] = compound: CN(C)C/C=C/C(=O)NC1=CC=C(C=C1)C(=O)NC2=CC=CC(=C2)NC3=NC=NC(=C3)C4=CNC5=CC=CC=C54 [THZ-P1-2]
[34] = compound: CNCc1ccc(-c2[nH]c3cc(F)cc4c3c2CCNC4=O)cc1 [Rucaparib]
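Further: breast cancer and non-malignant breast epithelial cell lines, Deep Dye Drop or Dye Drop imaging, nine half-log doses, GR normalized to time-zero plates and DMSO-only controls.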

Row | Cell Line | GR50, 72 h [1] [µM] | GR50, 72 h [2] [µM] | GR50, 72 h [3] [µM] | GR50, 72 h [4] [µM] | GR50, 72 h [5] [µM] | GR50, 72 h [6] [µM] | GR50, 72 h [7] [µM] | GR50, 72 h [8] [µM] | GR50, 72 h [9] [µM] | GR50, 72 h [10] [µM] | GR50, 72 h [11] [µM] | GR50, 72 h [12] [µM] | GR50, 72 h [13] [µM] | GR50, 72 h [14] [µM] | GR50, 72 h [15] [µM] | GR50, 72 h [16] [µM] | GR50, 72 h [17] [µM] | GR50, 72 h [18] [µM] | GR50, 72 h [19] [µM] | GR50, 72 h [20] [µM] | GR50, 72 h [21] [µM] | GR50, 72 h [22] [µM] | GR50, 72 h [23] [µM] | GR50, 72 h [24] [µM] | GR50, 72 h [25] [µM] | GR50, 72 h [26] [µM] | GR50, 72 h [27] [µM] | GR50, 72 h [28] [µM] | GR50, 72 h [29] [µM] | GR50, 72 h [30] [µM] | GR50, 72 h [31] [µM] | GR50, 72 h [32] [µM] | GR50, 72 h [33] [µM] | GR50, 72 h [34] [µM]
1 | MDAMB361 | 0.0407 | 0.00535 | 0.0196 | 0.00714 | > 1 | 0.762 | 0.0273 | 0.00507 | 0.00177 | 0.00352 | 0.00768 | 0.426 | 4.79 | 0.00362 | 0.00163 | 0.218 | 0.00493 | 0.223 | 4.83 | > 10 | 0.342 | > 10 | 0.00573 | < 0.001 | 0.314 | 1.62 | 0.268 | 0.00852 | > 10 | 2.22 | > 10 |  |  | 
2 | HCC1500 |  | 0.479 | > 3.16 | 0.00847 | 0.142 | 0.96 |  | 0.00186 | 1.88 | 0.0116 | 0.0356 | 0.259 |  | 0.000784 |  | 0.211 |  | > 10 | 6.33 | > 10 | 0.115 |  |  |  | > 10 |  | 0.00348 |  | 4.67 | 3.86 | 0.00851 |  |  | 
3 | PDX1328 | > 10 | 0.0288 | 0.168 | 0.00288 | > 1 | 0.687 | 0.0399 | 0.00494 | 0.0544 | 0.00437 | 0.0284 | 0.987 |  | 0.00569 | 0.00722 | 0.528 | 0.00554 | 1.57 | > 10 | > 10 | 0.239 | > 10 | 0.00595 |  | > 10 | > 10 | 0.0279 | 0.0106 | 6.29 | 4.04 | 1.56 | > 10 | > 10 | > 10
4 | HCC1428 |  | 0.00979 | 0.073 | 0.00286 | > 1 | 0.835 |  | 0.0128 | 4.21 | 0.0187 | 0.4 | > 10 |  | 0.00593 |  | 0.692 |  | > 10 | 0.553 | > 10 | 0.252 |  |  |  | > 10 |  | > 10 |  | > 10 | 3.17 | 4 |  |  | 
5 | CAL851 | > 10 | 1.3 | > 3.16 | 0.00652 | 0.0132 | 1.2 | 0.0715 | 0.00862 | 0.0604 | 0.00327 | 0.0421 | 0.871 | 4.62 | 0.00883 | 0.0129 | 0.343 | 0.212 | 3.64 | 5.05 | > 10 | 0.198 | > 10 | 0.00209 | 0.00819 |  | > 10 | 0.105 | 0.0085 | 5.34 | 2.38 | > 10 | 0.00814 |  | 
6 | SUM185PE | > 10 | 9.37 | > 3.16 | 0.00341 | > 1 | 6.86 | 0.136 | 0.0124 | 0.00177 | 0.0238 | 0.0985 | 1.65 | > 10 | 0.00558 | 0.103 | 0.659 | 4.52 | 0.318 | > 10 | > 10 | 0.784 | > 10 |  | 0.00637 | 6.34 |  | 0.0196 | 0.0143 | 1.71 | 0.0358 | 0.927 | > 10 | 5.83 | > 10
7 | UACC812 | 0.884 | 0.00485 | 0.0179 | 0.00518 | 0.00179 | 1.12 | > 1 | 0.00356 | 0.0622 | 0.00975 | 0.00748 | 0.0189 | 5.82 | 0.0021 | 0.332 | 0.0515 | 3.03 | 0.588 | 8.69 | 0.0345 | 0.175 | > 10 | 0.0127 | < 0.001 | 1.02 |  | 0.00102 | 0.691 | 5.86 | 1.04 | 3.73 | < 0.001 | 3.78 | > 10
8 | HCC1954 | > 10 | 0.302 | > 3.16 | 0.0103 | 0.0167 | 1.43 | 0.362 | 0.0097 | 0.00701 | 0.00659 | 0.127 | 2.12 | 5.43 | 0.0142 | 0.102 | 0.523 | 1.58 | 1.23 | > 10 | > 10 | 0.167 | > 10 | 0.00444 | 0.0484 | 1.43 |  | 1.86 | 0.0995 | > 10 | 4.08 | 9.94 | < 0.001 | 5.9 | > 10
